Test results as given in PubChem BioAssay (NCI).
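Dose response: 5 concentrations. Exposure: 48 h. Format: 96-well plates. Endpoint: linear interpolation; highest concentration if not reached. TGI denotes the concentration required for complete inhibition of growth.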

How the values were obtained:
Experiment in all cases: NCI-60 cell line screen, 48 h
SF-539 CNS = test system: SF-539 CNS
T-47D breast = test system: T-47D breast
OVCAR-3 ovarian = test system: OVCAR-3 ovarian
OVCAR-5 ovarian = test system: OVCAR-5 ovarian
UO-31 renal = test system: UO-31 renal
A549 NSCLC = test system: A549 NSCLC
PC-3 prostate = test system: PC-3 prostate
SF-295 CNS = test system: SF-295 CNS
MDA-MB-231 breast = test system: MDA-MB-231 breast
BT-549 breast = test system: BT-549 breast
UACC-257 melanoma = test system: UACC-257 melanoma
EKVX NSCLC = test system: EKVX NSCLC
NCI-H460 lung = test system: NCI-H460 lung
SF-268 CNS = test system: SF-268 CNS
MCF7 breast = test system: MCF7 breast
COLO 205 colon = test system: COLO 205 colon
LOX IMVI melanoma = test system: LOX IMVI melanoma
CCRF-CEM leukemia = test system: CCRF-CEM leukemia
MDA-N = test system: MDA-N
U251 CNS = test system: U251 CNS
MDA-MB-435 = test system: MDA-MB-435
HT29 colon = test system: HT29 colon
IGROV1 ovarian = test system: IGROV1 ovarian
MOLT-4 leukemia = test system: MOLT-4 leukemia
OVCAR-8 ovarian = test system: OVCAR-8 ovarian
KM12 colon = test system: KM12 colon
DU-145 prostate = test system: DU-145 prostate
RPMI-8226 leukemia = test system: RPMI-8226 leukemia
SK-MEL-5 melanoma = test system: SK-MEL-5 melanoma
MALME-3M melanoma = test system: MALME-3M melanoma
HCT-15 colon = test system: HCT-15 colon
TK-10 renal = test system: TK-10 renal
HS 578T breast = test system: HS 578T breast
SNB-19 CNS = test system: SNB-19 CNS
NCI-H522 lung = test system: NCI-H522 lung
CAKI-1 renal = test system: CAKI-1 renal
M14 melanoma = test system: M14 melanoma
NCI/ADR-RES ovarian = test system: NCI/ADR-RES ovarian
SW-620 colon = test system: SW-620 colon
SK-MEL-2 melanoma = test system: SK-MEL-2 melanoma
786-0 renal = test system: 786-0 renal
SN12C renal = test system: SN12C renal
HOP-62 NSCLC = test system: HOP-62 NSCLC
NCI-H23 lung = test system: NCI-H23 lung
UACC-62 melanoma = test system: UACC-62 melanoma
SK-OV-3 ovarian = test system: SK-OV-3 ovarian
ACHN renal = test system: ACHN renal
HOP-92 NSCLC = test system: HOP-92 NSCLC
HCT-116 colon = test system: HCT-116 colon
K-562 leukemia = test system: K-562 leukemia
HCC-2998 colon = test system: HCC-2998 colon
SK-MEL-28 melanoma = test system: SK-MEL-28 melanoma
RXF 393 renal = test system: RXF 393 renal
SR leukemia = test system: SR leukemia
HL-60(TB) leukemia = test system: HL-60(TB) leukemia
A498 renal = test system: A498 renal
NCI-H226 lung = test system: NCI-H226 lung

Measured: TGI

O=c1cc(CO)n(CCc2c[nH]c3ccccc23)cc1O
99.7 µM: HOP-92 NSCLC
83.3 µM: DU-145 prostate
59.6 µM: MCF7 breast
> 100 µM: SF-539 CNS | OVCAR-5 ovarian | UO-31 renal | A549 NSCLC | PC-3 prostate | SF-295 CNS | MDA-MB-231 breast | BT-549 breast | UACC-257 melanoma | EKVX NSCLC | NCI-H460 lung | COLO 205 colon | LOX IMVI melanoma | MDA-N | U251 CNS | MDA-MB-435 | HT29 colon | IGROV1 ovarian | OVCAR-8 ovarian | KM12 colon | RPMI-8226 leukemia | SK-MEL-5 melanoma | HCT-15 colon | TK-10 renal | HS 578T breast | SNB-19 CNS | CAKI-1 renal | M14 melanoma | SW-620 colon | SK-MEL-2 melanoma | SN12C renal | HOP-62 NSCLC | NCI-H23 lung | UACC-62 melanoma | SK-OV-3 ovarian | ACHN renal | HCT-116 colon
53.2 µM: SF-268 CNS
78.7 µM: NCI-H522 lung
75.1 µM: OVCAR-3 ovarian
99.6 µM: NCI/ADR-RES ovarian
57.5 µM: MALME-3M melanoma
47.8 µM: MOLT-4 leukemia
80.5 µM: T-47D breast
98.1 µM: 786-0 renal
69.8 µM: CCRF-CEM leukemia

COc1cc(C2S/C(=C/c3ccccc3)C(=O)N2c2cc(Cl)ccc2Cl)cc(OC)c1OC (centres undefined)
> 100 µM: T-47D breast | OVCAR-3 ovarian | K-562 leukemia | UO-31 renal | A549 NSCLC | PC-3 prostate | SF-295 CNS | MDA-MB-231 breast | BT-549 breast | UACC-257 melanoma | EKVX NSCLC | HCC-2998 colon | SK-MEL-28 melanoma | NCI-H460 lung | MCF7 breast | COLO 205 colon | CCRF-CEM leukemia | MDA-N | U251 CNS | MDA-MB-435 | HT29 colon | MOLT-4 leukemia | OVCAR-8 ovarian | RXF 393 renal | SR leukemia | DU-145 prostate | RPMI-8226 leukemia | SK-MEL-5 melanoma | MALME-3M melanoma | HCT-15 colon | TK-10 renal | SNB-19 CNS | CAKI-1 renal | HL-60(TB) leukemia | NCI/ADR-RES ovarian | SW-620 colon | SK-MEL-2 melanoma | SN12C renal | HOP-62 NSCLC | A498 renal | NCI-H23 lung | UACC-62 melanoma | SK-OV-3 ovarian | ACHN renal | NCI-H226 lung | HOP-92 NSCLC
53.1 µM: SF-268 CNS
38.8 µM: KM12 colon
28.1 µM: HCT-116 colon
36.1 µM: LOX IMVI melanoma
41.3 µM: 786-0 renal
42.9 µM: SF-539 CNS
50.4 µM: NCI-H522 lung
68.3 µM: IGROV1 ovarian
62.4 µM: M14 melanoma
